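Grown in 96-well plates, cells were treated for 48 hours with each compound at five concentrations. Insufficient inhibition: endpoint recorded as highest concentration tested. GI50 marks 50% less growth. Definition used: TGI = concentration required for complete inhibition of growth.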
Key:
Assay in all cases: inhibition of tumour cell growth, NCI panel, 48 h
DU-145 prostate = test system: DU-145 prostate
HCT-116 colon = test system: HCT-116 colon
OVCAR-4 ovarian = test system: OVCAR-4 ovarian
HOP-92 NSCLC = test system: HOP-92 NSCLC
U251 CNS = test system: U251 CNS
LOX IMVI melanoma = test system: LOX IMVI melanoma
IGROV1 ovarian = test system: IGROV1 ovarian
K-562 leukemia = test system: K-562 leukemia
SNB-75 CNS = test system: SNB-75 CNS
SK-MEL-2 melanoma = test system: SK-MEL-2 melanoma
RXF 393 renal = test system: RXF 393 renal
SN12C renal = test system: SN12C renal
HCT-15 colon = test system: HCT-15 colon
NCI-H23 lung = test system: NCI-H23 lung
SK-MEL-5 melanoma = test system: SK-MEL-5 melanoma
COLO 205 colon = test system: COLO 205 colon
MDA-MB-435 = test system: MDA-MB-435
SF-268 CNS = test system: SF-268 CNS
OVCAR-8 ovarian = test system: OVCAR-8 ovarian
KM12 colon = test system: KM12 colon
CAKI-1 renal = test system: CAKI-1 renal
MALME-3M melanoma = test system: MALME-3M melanoma
SW-620 colon = test system: SW-620 colon
MOLT-4 leukemia = test system: MOLT-4 leukemia
MCF7 breast = test system: MCF7 breast
ACHN renal = test system: ACHN renal
PC-3 prostate = test system: PC-3 prostate
T-47D breast = test system: T-47D breast
NCI-H522 lung = test system: NCI-H522 lung
HS 578T breast = test system: HS 578T breast
MDA-MB-231 breast = test system: MDA-MB-231 breast
786-0 renal = test system: 786-0 renal
NCI-H460 lung = test system: NCI-H460 lung
SK-MEL-28 melanoma = test system: SK-MEL-28 melanoma
SK-OV-3 ovarian = test system: SK-OV-3 ovarian
OVCAR-3 ovarian = test system: OVCAR-3 ovarian
SF-295 CNS = test system: SF-295 CNS
RPMI-8226 leukemia = test system: RPMI-8226 leukemia
HOP-62 NSCLC = test system: HOP-62 NSCLC
NCI/ADR-RES ovarian = test system: NCI/ADR-RES ovarian
TK-10 renal = test system: TK-10 renal
EKVX NSCLC = test system: EKVX NSCLC
SR leukemia = test system: SR leukemia
OVCAR-5 ovarian = test system: OVCAR-5 ovarian
HL-60(TB) leukemia = test system: HL-60(TB) leukemia
SF-539 CNS = test system: SF-539 CNS
CCRF-CEM leukemia = test system: CCRF-CEM leukemia
UACC-257 melanoma = test system: UACC-257 melanoma
A498 renal = test system: A498 renal
UACC-62 melanoma = test system: UACC-62 melanoma
HT29 colon = test system: HT29 colon
BT-549 breast = test system: BT-549 breast
NCI-H226 lung = test system: NCI-H226 lung
A549 NSCLC = test system: A549 NSCLC
M14 melanoma = test system: M14 melanoma
SNB-19 CNS = test system: SNB-19 CNS
UO-31 renal = test system: UO-31 renal

## CC(C)(C)c1cc(/C=C2/NC(=O)NC2=O)cc(C(C)(C)C)c1O
DU-145 prostate
  TGI: 30.3 µM
HCT-116 colon
  TGI: 30.4 µM
OVCAR-4 ovarian
  TGI: 26 µM
HOP-92 NSCLC
  TGI: 27.9 µM
U251 CNS
  TGI: 25.8 µM
LOX IMVI melanoma
  TGI: 32.9 µM
IGROV1 ovarian
  TGI: 31.1 µM
K-562 leukemia
  TGI: 33.1 µM
SNB-75 CNS
  TGI: 25.2 µM
SK-MEL-2 melanoma
  TGI: 27.2 µM
RXF 393 renal
  TGI: 19.7 µM
SN12C renal
  TGI: 31.4 µM
HCT-15 colon
  TGI: 28.2 µM
NCI-H23 lung
  TGI: 30.6 µM
SK-MEL-5 melanoma
  TGI: 27 µM
COLO 205 colon
  TGI: 28.5 µM
MDA-MB-435
  TGI: 33.4 µM
SF-268 CNS
  TGI: 28.8 µM
OVCAR-8 ovarian
  TGI: 38.5 µM
KM12 colon
  TGI: 28.5 µM
CAKI-1 renal
  TGI: 31.5 µM
MALME-3M melanoma
  TGI: 34.6 µM
SW-620 colon
  TGI: 39.3 µM
MOLT-4 leukemia
  TGI: 44.6 µM
MCF7 breast
  TGI: 29.9 µM
ACHN renal
  TGI: 24.1 µM
PC-3 prostate
  TGI: 20.3 µM
T-47D breast
  TGI: 11.8 µM
NCI-H522 lung
  TGI: 26.4 µM
HS 578T breast
  TGI: 36 µM
MDA-MB-231 breast
  TGI: 26.2 µM
786-0 renal
  TGI: 33.3 µM
NCI-H460 lung
  TGI: 29.1 µM
SK-MEL-28 melanoma
  TGI: 32 µM
SK-OV-3 ovarian
  TGI: 32 µM
OVCAR-3 ovarian
  TGI: 27.9 µM
SF-295 CNS
  TGI: 29.1 µM
RPMI-8226 leukemia
  TGI: 31.9 µM
HOP-62 NSCLC
  TGI: 33.1 µM
NCI/ADR-RES ovarian
  TGI: 34.1 µM
TK-10 renal
  TGI: 30.2 µM
EKVX NSCLC
  TGI: 24 µM
SR leukemia
  TGI: 33.2 µM
OVCAR-5 ovarian
  TGI: 30.8 µM
HL-60(TB) leukemia
  TGI: 25.9 µM
SF-539 CNS
  TGI: 31.6 µM
CCRF-CEM leukemia
  TGI: 32.8 µM
UACC-257 melanoma
  TGI: 29.9 µM
A498 renal
  TGI: 27 µM
UACC-62 melanoma
  TGI: 30.5 µM
HT29 colon
  TGI: 31.7 µM
BT-549 breast
  TGI: 27.3 µM
NCI-H226 lung
  TGI: 33 µM

## C/C(=N\O)c1ccc(Nc2cc(-n3nnc4ccccc43)nc3ccccc23)cc1
DU-145 prostate
  GI50: 7.7 µM
  TGI: 30 µM
HCT-116 colon
  GI50: 7.64 µM
  TGI: 23.7 µM
OVCAR-4 ovarian
  GI50: 13.9 µM
  TGI: > 72.2 µM
HOP-92 NSCLC
  GI50: 14.4 µM
  TGI: 46.5 µM
U251 CNS
  GI50: 6.68 µM
  TGI: 25.3 µM
LOX IMVI melanoma
  GI50: 3.44 µM
  TGI: 13.5 µM
IGROV1 ovarian
  GI50: 12.9 µM
  TGI: 42.5 µM
K-562 leukemia
  GI50: 5.32 µM
  TGI: > 100 µM
SNB-75 CNS
  GI50: 22.8 µM
  TGI: 99.2 µM
SK-MEL-2 melanoma
  GI50: 15.6 µM
  TGI: 47.6 µM
SN12C renal
  GI50: 4.67 µM
  TGI: 14.2 µM
HCT-15 colon
  GI50: 4.17 µM
  TGI: 20.9 µM
NCI-H23 lung
  GI50: 8.98 µM
  TGI: > 29.5 µM
A549 NSCLC
  GI50: 8.42 µM
  TGI: > 41.3 µM
SK-MEL-5 melanoma
  GI50: 5.57 µM
  TGI: 16.6 µM
COLO 205 colon
  GI50: 9.47 µM
  TGI: > 39.2 µM
MDA-MB-435
  GI50: 8.86 µM
  TGI: > 28.3 µM
SF-268 CNS
  GI50: 9.97 µM
  TGI: > 41.9 µM
OVCAR-8 ovarian
  GI50: 5.65 µM
  TGI: 18.3 µM
M14 melanoma
  GI50: 5 µM
  TGI: 14.9 µM
KM12 colon
  GI50: 2.98 µM
  TGI: 10.9 µM
CAKI-1 renal
  GI50: 4.26 µM
  TGI: 13.7 µM
MALME-3M melanoma
  GI50: 11.2 µM
  TGI: 36.1 µM
SW-620 colon
  GI50: 11.6 µM
  TGI: 39.4 µM
MOLT-4 leukemia
  GI50: 2.85 µM
  TGI: 15.4 µM
MCF7 breast
  GI50: 5.24 µM
  TGI: 14.4 µM
ACHN renal
  GI50: 5.82 µM
  TGI: 21.8 µM
PC-3 prostate
  GI50: 4.5 µM
  TGI: 20.5 µM
T-47D breast
  GI50: 8.23 µM
  TGI: > 34.7 µM
NCI-H522 lung
  GI50: 6.39 µM
  TGI: 22.8 µM
HS 578T breast
  GI50: 6.29 µM
  TGI: 20.4 µM
MDA-MB-231 breast
  GI50: 2.53 µM
  TGI: 9.37 µM
786-0 renal
  GI50: 4.89 µM
  TGI: 13.3 µM
SNB-19 CNS
  GI50: 19.9 µM
  TGI: > 90.7 µM
NCI-H460 lung
  GI50: 4.08 µM
  TGI: > 25.4 µM
SK-MEL-28 melanoma
  GI50: 16.9 µM
  TGI: > 69 µM
SK-OV-3 ovarian
  GI50: 24.1 µM
  TGI: > 62.3 µM
OVCAR-3 ovarian
  GI50: 16.3 µM
  TGI: 43.1 µM
SF-295 CNS
  GI50: 10.3 µM
  TGI: > 100 µM
RPMI-8226 leukemia
  GI50: 3.19 µM
  TGI: 12.8 µM
HOP-62 NSCLC
  GI50: 6.14 µM
  TGI: 21.4 µM
NCI/ADR-RES ovarian
  GI50: 5.22 µM
  TGI: 16.2 µM
UO-31 renal
  GI50: 6.79 µM
  TGI: 26.6 µM
TK-10 renal
  GI50: 3.14 µM
  TGI: 14.2 µM
EKVX NSCLC
  GI50: 6.97 µM
  TGI: > 28.9 µM
SR leukemia
  GI50: 18.7 µM
  TGI: 74.9 µM
OVCAR-5 ovarian
  GI50: 8.49 µM
  TGI: > 37.3 µM
HL-60(TB) leukemia
  GI50: 10.6 µM
  TGI: 45.7 µM
SF-539 CNS
  GI50: 19 µM
  TGI: 44.7 µM
CCRF-CEM leukemia
  GI50: 2.75 µM
  TGI: 30.3 µM
UACC-257 melanoma
  GI50: 17.5 µM
  TGI: > 53.7 µM
A498 renal
  GI50: 7.25 µM
  TGI: 30.8 µM
UACC-62 melanoma
  GI50: 6.9 µM
  TGI: 19 µM
HT29 colon
  GI50: 5.89 µM
  TGI: > 100 µM
BT-549 breast
  GI50: 3.77 µM
  TGI: 14.8 µM
NCI-H226 lung
  GI50: 7.88 µM
  TGI: 30.3 µM

Reference: PubChem BioAssay (NCI)
